According to patent US8415312B2, “Compound which is a nystatin derivative” (Biosergen AS, priority 2007, dated 2013):
In brackets after ≈: the same amount, converted by molar mass.

How the values were obtained:
Experiment in all cases: Antifungal susceptibility study (1), broth microdilution MIC
Format in all cases: cell-based
[1] = test system: Candida albicans ATCC 14053; conditions: lowest concentration preventing any visible growth, read at 48 hours, 35° C., RPMI 1640 pH 7.0
Experimental: (§1) ACROS ORGANICS, New Jersey, USA), pH 7.0, was used in study. […] Then these DMSO solutions were diluted 50-fold (first 10-fold and then 5-fold) in the test medium. […] The solutions were prepared just before using. The organisms used for susceptibility testing were: Candida albicans ATCC 14053, Cryptococcus humicolus ATCC 9949, Aspergillus niger ATCC 16404 and Fusarium oxysporum VKM F-140 (=CMI, IMI 90473). Organisms were stored on potato dextrose agar […] 50% glycerol solution at -70° C. For short-term storage, stock cultures were stored on agar […] 4° C. The cultures of yeasts were sub-cultured onto Sabouraud dextrose (SAB) agar and incubated for 24 hours at 35° C. (Candida albicans) or for 48 hours at 25° C. (Cryptococcus humicolus) to obtain a freshly grown pure culture. The cultures of moulds were sub-cultured onto potato dextrose agar and incubated for 7 days at 35° C. […] (Fusarium oxysporum) to ensure maximum sporulation. […] Inoculum quantitation was performed by plating dilution of the inoculum on Sabouraud dextrose agar to determine the viable number of CFU per milliliter. Sterile 96-well flat-bottomed microtitration plates were used for testing. 100 μl of diluted inocula were dispensed into each microdilution well containing 100 μl of the double dilutions of compounds. Drug-free and yeast/mould-free controls were included. Microdilution trays were incubated at 35° C. (Candida albicans and moulds) or 25° C. (Cryptococcus humicolus) without agitation and observed for the presence or absence of visible growth. […] Minimal inhibitory concentrations (MICs) were read at 48 hours.

[2] = test system: Cryptococcus humicolus ATCC 9949; conditions: lowest concentration preventing any visible growth, read at 48 hours, 25° C., RPMI 1640 pH 7.0
Experimental: as §1

[3] = test system: Aspergillus niger ATCC 16404; conditions: lowest concentration preventing any visible growth, read at 48 hours, 35° C., RPMI 1640 pH 7.0
Experimental: (§2) ACROS ORGANICS, New Jersey, USA), pH 7.0, was used in study. […] Then these DMSO solutions were diluted 50-fold (first 10-fold and then 5-fold) in the test medium. […] The solutions were prepared just before using. The organisms used for susceptibility testing were: Candida albicans ATCC 14053, Cryptococcus humicolus ATCC 9949, Aspergillus niger ATCC 16404 and Fusarium oxysporum VKM F-140 (=CMI, IMI 90473). Organisms were stored on potato dextrose agar […] 50% glycerol solution at -70° C. For short-term storage, stock cultures were stored on agar […] 4° C. The cultures of yeasts were sub-cultured onto Sabouraud dextrose (SAB) agar and incubated for 24 hours at 35° C. (Candida albicans) or for 48 hours at 25° C. (Cryptococcus humicolus) to obtain a freshly grown pure culture. The cultures of moulds were sub-cultured onto potato dextrose agar and incubated for 7 days at 35° C. […] (Fusarium oxysporum) to ensure maximum sporulation. […] Finally, the suspensions were vortexed for 15 s to break up clumps of cells and then filtered through four layers of sterile gauze. The densities of conidial spore suspensions was measured at 530 nm and adjusted to 0.09-0.11 for Aspergillus niger and 0.15-0.17 for Fusarium oxysporum. These suspensions were diluted 1:50 with the standard medium. […] Inoculum quantitation was performed by plating dilution of the inoculum on Sabouraud dextrose agar to determine the viable number of CFU per milliliter. Sterile 96-well flat-bottomed microtitration plates were used for testing. 100 μl of diluted inocula were dispensed into each microdilution well containing 100 μl of the double dilutions of compounds. Drug-free and yeast/mould-free controls were included. Microdilution trays were incubated at 35° C. (Candida albicans and moulds) or 25° C. (Cryptococcus humicolus) without agitation and observed for the presence or absence of visible growth. […] Minimal inhibitory concentrations (MICs) were read at 48 hours.

[4] = test system: Fusarium oxysporum VKM F-140; conditions: lowest concentration preventing any visible growth, read at 48 hours, 35° C., RPMI 1640 pH 7.0
Experimental: as §2

| Compound | MIC Candida albicans ATCC 14053 [1] | MIC Cryptococcus humicolus ATCC 9949 [2] | MIC Aspergillus niger ATCC 16404 [3] | MIC Fusarium oxysporum VKM F-140 [4] |
| --- | --- | --- | --- | --- |
| COC(=O)C(NC(=O)C1C(O)CC2(O)CC(O)C(O)CCC(O)CC(O)CC(O)CC(=O)OC(C)C(C)C(O)C(C)C=CC=CC=CC=CC=CC=CC=CC(OC3OC(C)C(O)C(N)C3O)CC1O2)C(C)C (centres unmarked) [Compound 8] | 2 µg/mL (≈ 1.93 µM) | 2 µg/mL (≈ 1.93 µM) | 4 µg/mL (≈ 3.86 µM) | 8 µg/mL (≈ 7.71 µM) |
| COC(=O)C(C)NC(=O)C1C(O)CC2(O)CC(O)C(O)CCC(O)CC(O)CC(O)CC(=O)OC(C)C(C)C(O)C(C)C=CC=CC=CC=CC=CC=CC=CC(OC3OC(C)C(O)C(N)C3O)CC1O2 (centres unmarked) [Compound 10] | 2 µg/mL (≈ 1.98 µM) | 2 µg/mL (≈ 1.98 µM) | 4 µg/mL (≈ 3.96 µM) | 8 µg/mL (≈ 7.93 µM) |
| CC1C=CC=CC=CC=CC=CC=CC=CC(OC2OC(C)C(O)C(NCC3(O)OCC(O)C(OC4OC(CO)C(O)C(O)C4O)C3O)C2O)CC2OC(O)(CC(O)C(O)CCC(O)CC(O)CC(O)CC(=O)OC(C)C(C)C1O)CC(O)C2C(=O)O (centres unmarked) [Compound 19] | 2 µg/mL (≈ 1.6 µM) | 2 µg/mL (≈ 1.6 µM) | 2 µg/mL (≈ 1.6 µM) | 8 µg/mL (≈ 6.41 µM) |
| CC1C=CC=CC=CC=CC=CC=CC=CC(OC2OC(C)C(O)C(N(Cc3ccc(N(C)C)cc3)Cc3ccc(N(C)C)cc3)C2O)CC2OC(O)(CC(O)C(O)CCC(O)CC(O)CC(O)CC(=O)OC(C)C(C)C1O)CC(O)C2C(=O)O (centres unmarked) [Compound 20] | 2 µg/mL (≈ 1.68 µM) | 2 µg/mL (≈ 1.68 µM) | 4 µg/mL (≈ 3.36 µM) | >16 µg/mL |
| CC1C=CC=CC=CC=CC=CC=CC=CC(OC2OC(C)C(O)C(NCCCN)C2O)CC2OC(O)(CC(O)C(O)CCC(O)CC(O)CC(O)CC(=O)OC(C)C(C)C1O)CC(O)C2C(=O)O (centres unmarked) [Compound 21] | 2 µg/mL (≈ 2.04 µM) | 4 µg/mL (≈ 4.08 µM) | 4 µg/mL (≈ 4.08 µM) | 4 µg/mL (≈ 4.08 µM) |
| CC1C=CC=CC=CC=CC=CC=CC=CC(OC2OC(C)C(O)C(NC(=O)C(N)CCCCN)C2O)CC2OC(O)(CC(O)C(O)CCC(O)CC(O)CC(O)CC(=O)OC(C)C(C)C1O)CC(O)C2C(=O)O (centres unmarked) [Compound 23] | 4 µg/mL (≈ 3.8 µM) | 4 µg/mL (≈ 3.8 µM) | 8 µg/mL (≈ 7.6 µM) | 8 µg/mL (≈ 7.6 µM) |
| CC1C=CC=CC=CC=CC=CC=CC=CC(OC2OC(C)C(O)C(NCC3(O)OCC(O)C(O)C3O)C2O)CC2OC(O)(CC(O)C(O)CCC(O)CC(O)CC(O)CC(=O)OC(C)C(C)C1O)CC(O)C2C(=O)NCCCN(C)C (centres unmarked) [Compound 30] | 1 µg/mL (≈ 0.854 µM) | 1 µg/mL (≈ 0.854 µM) | 1 µg/mL (≈ 0.854 µM) | 4 µg/mL (≈ 3.42 µM) |
| CC1C=CC=CC=CC=CC=CC=CC=CC(OC2OC(C)C(O)C(NCC3(O)OCC(O)C(O)C3O)C2O)CC2OC(O)(CC(O)C(O)CCC(O)CC(O)CC(O)CC(=O)OC(C)C(C)C1O)CC(O)C2C(=O)NCCCN(C)C (centres unmarked) [Compound 31, N-tagatopyronosyl S44HP DMAP amide] | 1 µg/mL (≈ 0.854 µM) | 2 µg/mL (≈ 1.71 µM) | 2 µg/mL (≈ 1.71 µM) | 4 µg/mL (≈ 3.42 µM) |
| CC1C=CC=CC=CC=CC=CC=CC=CC(OC2OC(C)C(O)C(NCc3ccc(N(C)C)cc3)C2O)CC2OC(O)(CC(O)C(O)CCC(O)CC(O)CC(O)CC(=O)OC(C)C(C)C1O)CC(O)C2C(=O)NCCCN(C)C (centres unmarked) [Compound 32] | 2 µg/mL (≈ 1.75 µM) | 2 µg/mL (≈ 1.75 µM) | 2 µg/mL (≈ 1.75 µM) | 8 µg/mL (≈ 7.01 µM) |
| CC1C=CC=CC=CC=CC=CC=CC=CC(OC2OC(C)C(O)C(NC(=O)C(N)CCCCN)C2O)CC2OC(O)(CC(O)C(O)CCC(O)CC(O)CC(O)CC(=O)OC(C)C(C)C1O)CC(O)C2C(=O)NCCCN(C)C [Compound 33, N-L-lysyl S44HP DMAP-Amide] | 1 µg/mL (≈ 0.88 µM) | 1 µg/mL (≈ 0.88 µM) | 1 µg/mL (≈ 0.88 µM) | 2 µg/mL (≈ 1.76 µM) |
| CC1C=CC=CC=CC=CC=CC=CC=CC(OC2OC(C)C(O)C(NC(=O)CN(C)C)C2O)CC2OC(O)(CC(O)C(O)CCC(O)CC(O)CC(O)CC(=O)OC(C)C(C)C1O)CC(O)C2C(=O)NCCCN(C)C (centres unmarked) [Compound 34] | 1 µg/mL (≈ 0.915 µM) | 2 µg/mL (≈ 1.83 µM) | 1 µg/mL (≈ 0.915 µM) | 4 µg/mL (≈ 3.66 µM) |
| CC1C=CC=CC=CC=CC=CC=CC=CC(OC2OC(C)C(O)C(NC(=O)c3ccc(CN)cc3)C2O)CC2OC(O)(CC(O)C(O)CCC(O)CC(O)CC(O)CC(=O)OC(C)C(C)C1O)CC(O)C2C(=O)NCCCN(C)C (centres unmarked) [Compound 35] | 2 µg/mL (≈ 1.75 µM) | 2 µg/mL (≈ 1.75 µM) | 4 µg/mL (≈ 3.5 µM) | 4 µg/mL (≈ 3.5 µM) |
| CC1C=CC=CC=CC=CC=CC=CC=CC(OC2OC(C)C(O)C(NCC3(O)OCC(O)C(O)C3O)C2O)CC2OC(O)(CC(O)C(O)CCC(O)CC(O)CC(O)CC(=O)OC(C)C(C)C1O)CC(O)C2C(=O)NCCCO (centres unmarked) [Compound 36] | 4 µg/mL (≈ 3.5 µM) | 4 µg/mL (≈ 3.5 µM) | 4 µg/mL (≈ 3.5 µM) | 16 µg/mL (≈ 14 µM) |
| CC1C=CC=CC=CC=CC=CC=CC=CC(OC2OC(C)C(O)C(NCc3ccc(N(C)C)cc3)C2O)CC2OC(O)(CC(O)C(O)CCC(O)CC(O)CC(O)CC(=O)OC(C)C(C)C1O)CC(O)C2C(=O)NCCCO (centres unmarked) [Compound 37] | 2 µg/mL (≈ 1.79 µM) | 1 µg/mL (≈ 0.897 µM) | 2 µg/mL (≈ 1.79 µM) | 4 µg/mL (≈ 3.59 µM) |
| CC1C=CC=CC=CC=CC=CC=CC=CC(OC2OC(C)C(O)C(NC(=O)C(N)CCCCN)C2O)CC2OC(O)(CC(O)C(O)CCC(O)CC(O)CC(O)CC(=O)OC(C)C(C)C1O)CC(O)C2C(=O)NCCCO (centres unmarked) [Compound 38] | 1 µg/mL (≈ 0.901 µM) | 1 µg/mL (≈ 0.901 µM) | 2 µg/mL (≈ 1.8 µM) | 4 µg/mL (≈ 3.61 µM) |
| CC1C=CC=CC=CC=CC=CC=CC=CC(OC2OC(C)C(O)C(NC(=O)CN(C)C)C2O)CC2OC(O)(CC(O)C(O)CCC(O)CC(O)CC(O)CC(=O)OC(C)C(C)C1O)CC(O)C2C(=O)NCCCO (centres unmarked) [Compound 39] | 1 µg/mL (≈ 0.938 µM) | 1 µg/mL (≈ 0.938 µM) | 2 µg/mL (≈ 1.88 µM) | 16 µg/mL (≈ 15 µM) |
| CC1C=CC=CC=CC=CC=CC=CC=CC(OC2OC(C)C(O)C(NC(=O)c3ccc(CN)cc3)C2O)CC2OC(O)(CC(O)C(O)CCC(O)CC(O)CC(O)CC(=O)OC(C)C(C)C1O)CC(O)C2C(=O)NCCCO (centres unmarked) [Compound 40] | 2 µg/mL (≈ 1.79 µM) | 2 µg/mL (≈ 1.79 µM) | 4 µg/mL (≈ 3.59 µM) | 16 µg/mL (≈ 14.4 µM) |
